Experimental data reported in patent US6696436B1, “B-homoestra-1,3,5(10)-trienes as modulators of tubulin polymerization” (The United States of America as represented by the …, priority 1999, dated 2004).

Tested on: chick embryo chorioallantoic membrane
Assay: Chick embryo chorioallantoic membrane (CAM) assay
Assay type: in vivo
Conditions: 100 mg disk, after 48 hours
Protocol: Anti-angiogenic activity is evaluated in vivo by testing the ability of a compound to inhibit the proliferation of new blood vessel cells (angiogenesis). A suitable assay is the chick embryo chorioallantoic membrane (CAM) assay described by Crum et al., Science 230:1375 (1985). See also, U.S. Pat. No. 5,001,116, which is hereby incorporated by reference in its entirety. Briefly, fertilized chick embryos are removed from their shell on day 3 or 4, and a methylcellulose disc containing the drug is implanted on the chorioallantoic membrane. The embryos are examined 48 hours later and, if a clear avascular zone appears around the disc, the diameter of that zone is measured.

SMILES: COc1cc2c(cc1O)CC[C@@H]1[C@@H]2CC[C@]2(C)[C@@H](O)CC[C@@H]12 [2-methoxyestradiol]
- Inhibition of cell mitosis and growth of new blood vessels: inhibit cell mitosis and the growth of new blood vessels
